Legend:
[1] = Clinical plasma pharmacokinetics; conditions: human, in vivo
[2] = Safety: treatment-related AEs and DLTs; format: in vivo
advanced solid tumors = assay: Tumor response by RECIST 1.1; format: in vivo, human; conditions: monotherapy Part A, 20 mg, one patient with peritoneal mesothelioma
[3] = QT interval corrected with Fridericia's method; format: in vivo, human; conditions: any dose level (data not shown)
[4] = across preclinical species; cited from earlier work
[5] = test system: cancer cell proliferation; conditions: in vitro; cited from earlier work
T-cell activation = conditions: in vitro; cited from earlier work
[6] = test system: multiple syngeneic models; conditions: in vivo; cited from earlier work
PI3K-γ = conditions: cited from earlier work

C[C@H](NC(=O)c1c(N)nn2cccnc12)c1cc2cccc(C#Cc3cnn(C)c3)c2c(=O)n1-c1ccccc1 [Eganelisib]
half-life ([1]; 10 mg, terminal t1/2): 10.6 to 23.6 h | half-life ([1]; 10 mg, terminal t1/2, geometric mean): 39.8 h | dose proportionality of exposure (Cmax and AUC) ([1]; 60 mg): approximately dose proportional | half-life ([1]; effective t1/2 calculated from the AR estimate): 9.3 to 25.7 h | Tmax ([1]; po): 1 to 6 h | half-life ([1]; t1/2): 10.6 to 39.8 h | ALT increased, treatment-related, any grade ([2]; human, in vivo): 3 (16%) n (%) | AST increased, treatment-related, any grade ([2]; human, in vivo): 4 (21%) n (%) | Fatigue, treatment-related, any grade ([2]; human, in vivo): 2 (11%) n (%) | Grade ≥3 treatment-related AEs ([2]; human, in vivo): 2 (11%) n (%) | Headache, treatment-related, any grade ([2]; human, in vivo): 2 (11%) n (%) | Rash, treatment-related, any grade ([2]; human, in vivo): 3 (16%) n (%) | hepatic AEs ([2]; human, in vivo): 33% | increased ALT, treatment-related grade ≥3 ([2]; human, in vivo): 18% | increased AST, treatment-related grade ≥3 ([2]; human, in vivo): 18% | increased alkaline phosphatase, treatment-related grade ≥3 ([2]; human, in vivo): 5% | patients who discontinued for a treatment-related AE ([2]; human, in vivo): 8% | patients with dose reduction for a treatment-related AE ([2]; human, in vivo): 3% | treatment-related SAEs ([2]; human, in vivo): 2 (5%) n (%) | treatment-related serious adverse events ([2]; human, in vivo): 5% | grade 5 treatment-related AEs ([2]; monotherapy): no grade 5 treatment-related AEs | MTD ([2]; monotherapy, 10–60 mg QD): no dose of eganelisib monotherapy met MTD criteria | duration of response (PR) (advanced solid tumors): […] | effects on QTcF [3]: No clinically relevant effects | oral bioavailability [4]: ≥ 31% | direct effect on cancer cell proliferation [5]: […] | direct effect on T-cell activation (T-cell activation): no direct effect | tumor growth in syngeneic models [6]: tumor growth delay | IC50 (PI3K-γ): […]
